# Molecular target: TBK1 (Homo sapiens (Human), UniProt Q9UHD2)
# Experiment: TBK1 low ATP kinase assay (in vitro assay 1)
# Format: biochemical
# Settings: in vitro assay 1, read-out: TBK1 low ATP kinase assay IC50
# TBK1, sequence (Q9UHD2 whole entry): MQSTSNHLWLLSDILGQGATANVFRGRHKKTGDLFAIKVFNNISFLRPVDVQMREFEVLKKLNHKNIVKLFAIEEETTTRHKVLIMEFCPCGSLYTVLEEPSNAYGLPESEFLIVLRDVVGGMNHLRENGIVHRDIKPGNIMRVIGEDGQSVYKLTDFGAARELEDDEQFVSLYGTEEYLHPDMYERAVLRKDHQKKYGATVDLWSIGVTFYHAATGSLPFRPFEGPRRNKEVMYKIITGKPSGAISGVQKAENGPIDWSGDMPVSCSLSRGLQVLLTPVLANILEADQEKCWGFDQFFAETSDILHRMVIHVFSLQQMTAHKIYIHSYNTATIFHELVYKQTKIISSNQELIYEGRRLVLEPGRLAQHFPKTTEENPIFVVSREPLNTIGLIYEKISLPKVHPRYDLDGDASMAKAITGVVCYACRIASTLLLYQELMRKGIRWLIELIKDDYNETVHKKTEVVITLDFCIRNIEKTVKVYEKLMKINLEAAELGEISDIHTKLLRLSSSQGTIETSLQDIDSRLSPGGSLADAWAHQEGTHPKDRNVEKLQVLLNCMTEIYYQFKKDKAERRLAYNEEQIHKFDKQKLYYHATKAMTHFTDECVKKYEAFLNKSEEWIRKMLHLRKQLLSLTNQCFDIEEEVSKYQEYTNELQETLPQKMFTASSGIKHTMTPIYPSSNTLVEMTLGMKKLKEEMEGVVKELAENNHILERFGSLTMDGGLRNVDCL
row,Compound,IC50
1,"Cc1c(-c2ccc3nc(Nc4cc(CN5CCN(C(=O)C6CC6)CC5)ccn4)[nH]c3c2)ncnc1C(F)(F)F [Example 183.03, cyclopropyl(4-{[2-({6-[5-methyl-6-(trifluoromethyl)pyrimidin-4-yl]-1H-benzimidazol-2-yl}amino)pyridin-4-yl]methyl}piperazin-1-yl)methanone]",2240 nM
2,"CC(c1ccnc(Nc2nc3ccc(-c4cc(N5CC(C(F)(F)F)C5)ncn4)cc3[nH]2)c1)N1CCN(C(=O)C2CC2)CC1 (single isomer, unassigned) [Example 164.03, cyclopropyl{4-[(1R or 1S)-1-{2-[(6-{6-[3-(trifluoromethyl)azetidin-1-yl]pyrimidin-4-yl}-1H-benzimidazol-2-yl)amino]pyridin-4-yl}ethyl]piperazin-1-yl}methanone]",0.558 nM
3,"Cc1noc(-c2ccc3nc(Nc4cc(CN5CCN(C(=O)C6CC6)CC5)ccn4)[nH]c3c2C)n1 [Example 54.02, cyclopropyl{4-[(2-{[7-methyl-6-(3-methyl-1,2,4-oxadiazol-5-yl)-1H-benzimidazol-2-yl]amino}pyridin-4-yl)methyl]piperazin-1-yl}methanone]",229 nM
4,"Cc1c(-c2ccc3nc(Nc4cc(CN5CCN(C(=O)C6CC6)CC5)ccn4)[nH]c3c2)ccnc1OC(C)C [Example 11.01, cyclopropyl(4-{[2-({6-[3-methyl-2-(propan-2-yloxy)pyridin-4-yl]-1H-benzimidazol-2-yl}amino)pyridin-4-yl]methyl}piperazin-1-yl)methanone]",3610 nM
5,"Cc1noc(-c2ccc3nc(Nc4cc(CN5CCN(c6cccc(F)c6)CC5)ccn4)[nH]c3c2)n1 [Example 101.09, N-(4-{[4-(3-fluorophenyl)piperazin-1-yl]methyl}pyridin-2-yl)-6-(3-methyl-1,2,4-oxadiazol-5-yl)-1H-benzimidazol-2-amine]",460 nM
6,"Cc1noc(-c2ccc3nc(Nc4cc(CN5CCN(C(=O)C6CC6)CC5)ccn4)[nH]c3c2)n1 [Example 16.01.04, cyclopropyl{4-[(2-{[6-(3-methyl-1,2,4-oxadiazol-5-yl)-1H-benzimidazol-2-yl]amino}pyridin-4-yl)methyl]piperazin-1-yl}methanone]",67 nM
7,"Cc1ccnc(N2CCN(Cc3ccnc(Nc4nc5ccc(-c6nc(C)no6)cc5[nH]4)c3)CC2)c1 [Example 101.30, 6-(3-methyl-1,2,4-oxadiazol-5-yl)-N-(4-{[4-(4-methylpyridin-2-yl)piperazin-1-yl]methyl}pyridin-2-yl)-1H-benzimidazol-2-amine]",560 nM
8,"CC(c1ccnc(Nc2nc3ccc(-c4cnn(CC5CC5(F)F)c4)cc3[nH]2)c1)N1CCN(C(=O)OC(C)(C)C)CC1 (single isomer, unassigned) [Example 55.01, tert-butyl 4-[(1R or 1S)-1-(2-{[6-(1-{[(1RS)-2,2-difluorocyclopropyl]methyl}-1H-pyrazol-4-yl)-1H-benzimidazol-2-yl]amino}pyridin-4-yl)ethyl]piperazine-1-carboxylate]",4.05 nM
9,"COc1cnc(OCC2CC2)nc1-c1ccc2nc(Nc3cc(CN4CCN(C(=O)CC(F)(F)F)CC4)ccn3)[nH]c2c1 [Example 64.01.03, 1-(4-{[2-({6-[2-(cyclopropylmethoxy)-5-methoxypyrimidin-4-yl]-1H-benzimidazol-2-yl}amino)pyridin-4-yl]methyl}piperazin-1-yl)-3,3,3-trifluoropropan-1-one]",47 nM
10,"O=C(CC(F)(F)F)N1CCN(Cc2ccnc(Nc3nc4ccc(-c5cnc(Cl)cn5)cc4[nH]3)c2)CC1 [Example 140.02, 1-{4-[(2-{[6-(5-chloropyrazin-2-yl)-1H-benzimidazol-2-yl]amino}pyridin-4-yl)methyl]piperazin-1-yl}-3,3,3-trifluoropropan-1-one]",540 nM
11,"CCOc1cnc(C)cc1-c1ccc2nc(Nc3cc(CN4CCN(C(=O)C5CCC5)CC4)ccn3)[nH]c2c1 [Example 09.04, cyclobutyl{4-[(2-{[6-(5-ethoxy-2-methylpyridin-4-yl)-1H-benzimidazol-2-yl]amino}pyridin-4-yl)methyl]piperazin-1-yl}methanone]",352 nM
12,"Cc1noc(-c2ccc3nc(Nc4cc(C(C)N5CCN(C(=O)C6CC6(F)F)CC5)ccn4)[nH]c3c2)n1 (single isomer, unassigned) [Example 16.06.05, ((1RS)-2,2-difluorocyclopropyl){4-[(1R or 1S)-1-(2-{[6-(3-methyl-1,2,4-oxadiazol-5-yl)-1H-benzimidazol-2-yl]amino}pyridin-4-yl)ethyl]piperazin-1-yl}methanone]",18.1 nM
13,"COc1nccc(-c2ccc3nc(Nc4cc(CN5CCN(C(=O)C6CC6)CC5)ccn4)[nH]c3c2)c1C [Example 10.01, cyclopropyl{4-[(2-{[6-(2-methoxy-3-methylpyridin-4-yl)-1H-benzimidazol-2-yl]amino}pyridin-4-yl)methyl]piperazin-1-yl}methanone]",2260 nM
14,"COc1c(OCC2CC2)ncnc1-c1ccc2nc(Nc3cc(CN4CCN(C(=O)CC(F)(F)F)CC4)ccn3)[nH]c2c1 [Example 65.01.02, 1-(4-{[2-({6-[6-(cyclopropylmethoxy)-5-methoxypyrimidin-4-yl]-1H-benzimidazol-2-yl}amino)pyridin-4-yl]methyl}piperazin-1-yl)-3,3,3-trifluoropropan-1-one]",58.4 nM
15,"COc1nccc(-c2ccc3nc(Nc4cc(CN5CCN(C(=O)C6CCC6)CC5)ccn4)[nH]c3c2)n1 [Example 25.01.02, cyclobutyl{4-[(2-{[6-(2-methoxypyrimidin-4-yl)-1H-benzimidazol-2-yl]amino}pyridin-4-yl)methyl]piperazin-1-yl}methanone]",218 nM
16,"O=C(CC(F)(F)F)N1CCN(Cc2ccnc(Nc3nc4ccc(-c5ncnc6c5COC6)cc4[nH]3)c2)CC1 [Example 182.02, 1-{4-[(2-{[6-(5,7-dihydrofuro[3,4-d]pyrimidin-4-yl)-1H-benzimidazol-2-yl]amino}pyridin-4-yl)methyl]piperazin-1-yl}-3,3,3-trifluoropropan-1-one]",110 nM
17,"O=C(C1CCC1)N1CCN(Cc2ccnc(Nc3nc4ccc(-c5ccnc(OCC6CC6)n5)cc4[nH]3)c2)CC1 [Example 62.01.02, cyclobutyl(4-{[2-({6-[2-(cyclopropylmethoxy)pyrimidin-4-yl]-1H-benzimidazol-2-yl}amino)pyridin-4-yl]methyl}piperazin-1-yl)methanone]",9.54 nM
18,"CC(C)Cc1nc(-c2ccc3nc(Nc4cc(CN5CCN(C(=O)OC(C)(C)C)CC5)ccn4)[nH]c3c2)n(C)n1 [Example 42.01, tert-butyl 4-{[2-({6-[1-methyl-3-(2-methylpropyl)-1H-1,2,4-triazol-5-yl]-1H-benzimidazol-2-yl}amino)pyridin-4-yl]methyl}piperazine-1-carboxylate]",577 nM
19,"O=C(C1CC1)N1CCN(Cc2ccnc(Nc3nc4ccc(-c5cc(N6CCCCC6)ncn5)cc4[nH]3)c2)CC1 [Example 145.03, cyclopropyl(4-{[2-({6-[6-(piperidin-1-yl)pyrimidin-4-yl]-1H-benzimidazol-2-yl}amino)pyridin-4-yl]methyl}piperazin-1-yl)methanone]",2.1 nM
20,"O=C(C1CC1)N1CCN(Cc2ccnc(Nc3nc4ccc(-c5ccnc(C(F)(F)F)n5)cc4[nH]3)c2)CC1 [Example 27.01, cyclopropyl(4-{[2-({6-[2-(trifluoromethyl)pyrimidin-4-yl]-1H-benzimidazol-2-yl}amino)pyridin-4-yl]methyl}piperazin-1-yl)methanone]",164 nM
21,"Cn1cc(-c2ccc3nc(Nc4cc(CN5CCN(C(=O)C6CC6)CC5)ccn4)[nH]c3c2)cn1 [Example 37.03, cyclopropyl{4-[(2-{[6-(1-methyl-1H-pyrazol-4-yl)-1H-benzimidazol-2-yl]amino}pyridin-4-yl)methyl]piperazin-1-yl}methanone]",52.7 nM
22,"Cc1noc(-c2ccc3nc(Nc4cc(CN5CCN(C(=O)OC(C)(C)C)C[C@H]5C)ccn4)[nH]c3c2)n1 [Example 16.03.01, tert-butyl (3R)-3-methyl-4-[(2-{[6-(3-methyl-1,2,4-oxadiazol-5-yl)-1H-benzimidazol-2-yl]amino}pyridin-4-yl)methyl]piperazine-1-carboxylate]",125 nM
23,"CC(c1ccnc(Nc2nc3ccc(-c4cnn(CC5(Cl)CC5)c4)cc3[nH]2)c1)N1CCN(C(=O)CC(F)(F)F)CC1 (single isomer, unassigned) [Example 69.02, 1-{4-[(1R or 1S)-1-{2-[(6-{1-[(1-chlorocyclopropyl)methyl]-1H-pyrazol-4-yl}-1H-benzimidazol-2-yl)amino]pyridin-4-yl}ethyl]piperazin-1-yl}-3,3,3-trifluoropropan-1-one]",0.64 nM
24,"O=C(CC1CC1)N1CCN(Cc2ccnc(Nc3nc4ccc(-c5cncnc5)cc4[nH]3)c2)CC1 [Example 45.01.02, 2-cyclopropyl-1-{4-[(2-{[6-(pyrimidin-5-yl)-1H-benzimidazol-2-yl]amino}pyridin-4-yl)methyl]piperazin-1-yl}ethanone]",397 nM
25,"COc1cnccc1-c1ccc2nc(Nc3cc(CN4CCN(C(=O)C5CCC5)CC4)ccn3)[nH]c2c1 [Example 04.04, cyclobutyl{4-[(2-{[6-(3-methoxypyridin-4-yl)-1H-benzimidazol-2-yl]amino}pyridin-4-yl)methyl]piperazin-1-yl}methanone]",22.4 nM
26,"CC(c1ccnc(Nc2nc3ccc(-c4cnn(CC5CC5)c4)c(F)c3[nH]2)c1)N1CCN(C(=O)CC(F)(F)F)CC1 (single isomer, unassigned) [Example 121.02]",2.5 nM
27,"O=C(CC(F)(F)F)N1CCN(Cc2ccnc(Nc3nc4ccc(-c5cc(NC6CCC6)ncn5)cc4[nH]3)c2)CC1 [Example 152.02, 1-(4-{[2-({6-[6-(cyclobutylamino)pyrimidin-4-yl]-1H-benzimidazol-2-yl}amino)pyridin-4-yl]methyl}piperazin-1-yl)-3,3,3-trifluoropropan-1-one]",0.48 nM
28,"Cc1nccc(-c2ccc3nc(Nc4cc(C(C)N5CCN(C(=O)CC6CC6)CC5)ccn4)[nH]c3c2)n1 (single isomer, unassigned) [Example 24.05.03.B, 2-cyclopropyl-1-{4-[(1S or 1R)-1-(2-{[6-(2-methylpyrimidin-4-yl)-1H-benzimidazol-2-yl]amino}pyridin-4-yl)ethyl]piperazin-1-yl}ethanone]",13.8 nM

# From patent publication US10894784B2, “Heteroarylbenzimidazole compounds” (BAYER PHARMA AKTIENGESELLSCHAFT, priority 2015, dated 2021)
